Earlier results on 3 substances are cited in publication doi:10.1101/2025.05.13.653654v1, “PEPlife2: A Updated Repository of the Half-life of Peptides” (bioRxiv, 2025).

On the data set, the source says:
Our database includes various chemical modifications aimed at enhancing the stability of peptides or proteins, such as PEGylation, Fc-conjugation, amino acid replacements (e.g., Lys substitutions followed by fatty acid conjugation), D-amino acid substitutions, non-natural amino acid substitutions (e.g., Aib, Sar, pGlu), cyclization, amidation, acetylation, and others.

Regarding CMPRLRGC [VH434], the Half life is 1.16 h.

Consider DRVYIHP [Ang(1-7)], for which the half-life result (approximate values, effect of N-terminal acetylation and C-terminal amidation, matrix not given, curated database entry, ref not given) is recorded as “approximately 9 minutes”.

On to cMPRLRGC [VH445], for which the Half life is 3.03 h.
